Where two headings read alike, the source gives them in different places.
Experiments:
[1] = Oxygen release from peroxides in water or nutrient solution and its adjustment; type: physicochemical; conditions: for oxygen level as nutrient strength increases: nutrient solution with or without companion cations, FIGS. 17 and 18; for increase of oxygen liberated per millimole of EDTA: slope of linear fit, FIG. 10
Procedure: One hundred milligrams of each of the above solid compositions comprising oxidizing agents was put in a 50 ml polypropylene tube, respectively, unless specialized. 50 ml de-ionized water or nutrient solution was put into the tubes. The strength of the nutrient solutions was 25%, 50%, 100%, 200% or 400% of Yan's formula (Yan, F. et al., “Adaptation of active proton pumping and plasmalemma ATPase activity of corn roots to low root medium pH,” Plant Physiology, 117:311-319 (1998)). The oxygen solutions were allowed to equilibrate over night before any measurements were made.
Oxygen contents in the solutions were determined with an oxygen electrode and ASET system (Applicable Electronics, Inc). Calibration was made by nitrogen aerating deionized water and air equilibrated deionized water. The deionized water consists of 0% oxygen level and the air equilibrated deionized water consists of 21% oxygen content. The temperature of the deionized water was measured and recorded for every measurement. The actual oxygen content in the deionized water at a specific temperature was derived from a handbook of chemistry (David R. Lide, Handbook of Chemistry and Physics, 79th Edition, 1998-1999, pp. 8-87). A regressive equation was formed based on data from calibration calculations and the handbook. All of the observed values were changed into oxygen contents in micromoles through the regressive equation.
Different levels of companion cations of peroxides or chelate were added to the sample solutions. For example, EDTA was added to the 50 ml tubes with peroxide solutions. The peroxide solutions were made in both deionized water and nutrient solutions. After equilibrating overnight, the oxygen contents of the adjusted solutions were analyzed.

ADH of corn roots = assay: ADH activity of roots of flooded corn plants (FIG. 23); type: in vivo; conditions: flooded for 3 days
Bald cypress seedlings = assay: Flooding and salinity of Bald cypress seedlings; type: in vivo; conditions: 8 ppt salinity
Excerpt: Bald cypress is a plant of great ecological and economic significance in Florida. However, these tough, tolerant, inexpensive and somewhat idiosyncratic trees are at the heart of a fast-disappearing ecosystem. Flooding and salinity caused by hurricanes have accelerated the disappearance of the species. Five basins were set up to mimic flooding basins to study the effects of a solid composition of the invention on alleviating the impact of flooding and salinity on Bald cypress seedlings. These basins were established by using plastic swimming pools with 185×152×23 cm plastic tubs for the combined treatment of flooding and salinity to bald cypress seedlings.
Five levels of salinity were presented: 0, 2, 4, 6 and 8 ppt in sodium chloride. Three flooding levels were presented: 0%, 50% and 100% root submergence. 0% flooding level consisted of 100% of the pots being above the water surface; 50% flooding level consisted of 50% of the height of the pots being submerged; and 100% flooding level consisted of 100% of the height of the pots being submerged.
Two oxygen bioavailable levels were provided for those seedlings that were fully flooded with 8 ppt salinity: (1) with composition comprising oxidizing agent or (2) without composition comprising oxidizing agent in the potted soil. […] Survival rates of the potted seedlings were observed and calculated for each of the treatments.

[2] = Solubility product (Ksp) of the peroxides; type: physicochemical
ADH of corn seedlings [3] = assay: ADH activity of flooded corn seedlings grown in soil in pots with oxygen fertilizers (FIG. 28); type: in vivo
Procedure: ADH and NR were extracted in the same extraction buffer including 50 mM Tris-HCl (pH 8.0), 1 mM EDTA, 12 μM mercaptoethanol, and 0.05 mg DTT/ml. Frozen root tissues were ground rapidly in a chilled mortar and pestle with the above chilled extraction buffer. The homogenate was centrifuged at 15 000 g at 4° C. for 15 minutes. One hundred μl of supernatant was added to 800 μl of reaction solution containing 50 mM Tris-HCl buffer at pH 9.0, 1 mM EDTA, and 1 mM NAD. The assay uses 15% (v/v) ethanol as the substrate and measures the production of NADH. Measurement of NADH formation was performed in a spectrophotometer (DU 64, Beckman Instruments, Fullerton, Calif.) for 60 seconds at 340 nm. A unit of ADH is defined as the production of 1 nmol of NADH min^−1 mg^−1 protein.

corn seeds [4] = conditions: for germination rate: FIG. 2
Procedure: Corn seeds of FR27 x FRM017 (GRADE: 24RD) were provided by Illinois Foundation Seeds Inc. Two sets of seeds were used: one set of seeds consisted of fresh seeds and the other set of seeds consisted of seeds that were […].
H2O2 methods: 30 seeds and 50 ml 0.5 mM Ca (as CaSO4) with 3/5000, 3/4000, 3/3000, 3/2000, 3/1000 or 3/100 H2O2, separately, were placed into 9 cm dishes. The seeds were soaked in these solutions for 24 hours and then put on and covered by wet napkins. The napkins were wetted in the soaking solutions, respectively.

corn seeds [5] = conditions: 3/2000 hydrogen peroxide for one day, embryos or endosperm, FIG. 6
Procedure: The tested seeds were stabilized as described above. The seed samples were soaked in 0.5 mM CaSO4 solution with or without 3/2000 hydrogen peroxide for one day before any measurements were made. Pt/Ir oxygen electrodes were used. The microelectrodes were calibrated before and after each experiment. Calibrations were performed in deionized water saturated with air (which includes 21% oxygen concentration) and then bubbled with nitrogen gas for at least 30 min (so as to provide 0% oxygen concentration). Ten scans were done on either embryos or endosperms.

[6] = test system: Alcohol dehydrogenase (ADH) of corn embryos; conditions: 3/2000 hydrogen peroxide, embryos facing downward, 48 hours after germination at 25° C., FIG. 4
Procedure: Alcohol dehydrogenase (“ADH”) activities of corn embryos placed in environments with different concentrations of bioavailable oxygen at 48 hours after germination at 25° C. were observed. Before germination, corn seeds were soaked in 0.5 mM CaSO4 solution, in aeroponics, or in 3/2000 H2O2 for 24 hours. All of the embryos were exposed to air except for one sample group treated with water, which was placed into soil.
Following treatment, each corn seed was cut into two halves on the embryo. Four halves of embryos were homogenized in extraction buffer including 50 mM Tris-HCl (pH 8.0), 1 mM EDTA, 0.5 mg/ml DTT, and 12 μM mercaptoethanol. The suspension solution of the enzyme was centrifuged twice at 15000 rpm for 5 min in order to separate oil (on the top) from pellets (at the bottom). The supernatant from the second centrifuge was used to measure ADH activity.
100 μl of the enzyme solution and 900 μl of reaction solution that included 50 mM Tris-HCl (pH 9.0), 1 mM EDTA, and 1 mM NAD were incubated in 1.5 ml Eppendorf tubes in a water bath at 30° C. for 3 min. Then, 100 μl 15% ethanol and the reaction solution were added directly to cuvette. Reaction time was 1 min. in the cuvette at 340 nm. The assay uses ethanol as the substrate and measures the production of NADH. […] The relative ADH activity was calculated based on taking the ADH activity of corn seeds germinated in aeroponics as 100%.

[7] = test system: corn seed embryos or endosperms; conditions: 3/2000 hydrogen peroxide for one day, medium 100 μM CaCl2, FIG. 5
Procedure: 1.5 mm borosilicate glass capillaries (cat no. TW150-4) that were 10 cm in length were pulled into two micropipettes through a Sutter P-97 at 545° C. The freshly pulled micropipettes were silanized at 200° C. with N,N-Dimethyltrimethylslylamine according to Smith's method (Smith, P J S et al., “Self-referencing, non-invasive, ion selective electrode for single cell direction of trans-plasma membrane,” Microscopy Research and Technique, 46:398-417 (1999)).
Micropipettes were backfilled with H^+ probe backfilling solution of 50 mM KCl and 50 mM HK2PO4.
45 g of Sylgard 184 silicone elastomer and 5 g of Sylgard 184 curing agent (Dow Corporation, USA) were poured into the bottom of a 10 cm Pyrex dish in order to provide a medium for stabilizing the tested treated seeds. One seed was appropriately stabilized in the center of the Pyrex dish with 4 to 5 stainless-steel needles.
Microelectrodes were calibrated before and after each experiment. Calibrations were performed at standard pH 6, 7, and 8 solutions (Fisher Scientific) at 25° C. The Nernst Slopes (in mV decade^−1) were equal or close to 59. Following calibration, the microelectrode was positioned on both the embryos and endosperm of the targeted seed. Then, the embryo and endosperm were, respectively, scanned 100 μm by 100 μm. At least 10 scans were done on either embryo or endosperm.

ADH of corn seedlings [8] = conditions: nutrient solution of 2 mM hydrogen peroxide, FIG. 26
Procedure: The enzyme assay was performed according to the procedures described by Chung and Ferl (“Arabidopsis Alcohol Dehydrogenase Expression in Both Shoots and Roots Is Conditioned by Root Growth Environment,” Plant Physiol, 121:429-436 (1999)) and modified slightly. ADH and NR were extracted in the same extraction buffer including 50 mM Tris-HCl (pH 8.0), 1 mM EDTA, 12 μM mercaptoethanol, and 0.05 mg DTT/ml. Frozen root tissues were ground rapidly in a chilled mortar and pestle with the above chilled extraction buffer. The homogenate was centrifuged at 15 000 g at 4° C. for 15 minutes. One hundred μl of supernatant was added to 800 μl of reaction solution containing 50 mM Tris-HCl buffer at pH 9.0, 1 mM EDTA, and 1 mM NAD. The assay uses 15% (v/v) ethanol as the substrate and measures the production of NADH. Measurement of NADH formation was performed in a spectrophotometer (DU 64, Beckman Instruments, Fullerton, Calif.) for 60 seconds at 340 nm. A unit of ADH is defined as the production of 1 nmol of NADH min^−1 mg^−1 protein.

[9] = test system: nitrate reductase (NR) of corn seedlings; conditions: nutrient solution of 2 mM hydrogen peroxide, FIG. 27
Procedure: NR assays were performed essentially as described by the protocol of Datta and Sharma (Rupali Datta and Rameshwar Sharma, “Temporal and spatial regulation of nitrate reductase and nitrite reductase in green maize leaves,” Plant Science, 144:77-83 (1999)). NR activity was measured immediately. 200 μl of supernatant was added to 800 μl of reaction solution consisting of 50 mM Tris-HCl buffer (pH 8.0), 1 mM EDTA, 100 μM NADH, 10 mM KNO3 and 1 μM Na2MoO4 in a 2 ml eppendorf tube. The reaction was performed in a water bath of 30° C. and terminated after 60 min by adding 500 μl of an equal volume of sulfanilamide (1% [w/v] in 3 n HCl) and naphthylethylene-diamine dihydrochloride (0.05% [w/v]) to the reaction mixture. The samples were colorimetrically measured at 540 nm. One unit of NR activity was defined as the amount required to produce 1 nmol of nitrite min^−1 mg^−1 protein.

corn root = conditions: nutrient solution with 1 mM H2O2 for two days, air bubbling (normoxia), FIG. 31
Procedure: Each of the untreated 1.5 mm borosilicate glass capillaries (cat no. TW150-4) of 10 cm length was pulled into two micropipettes through a Sutter P-97 at 545° C. The freshly pulled micropipettes were silanized at 200° C. with N,N-Dimethyltrimethylslylamine according to Smith's method (Smith, P J S et al., “Self-referencing, non-invasive, ion selective electrode for single cell direction of trans-plasma membrane,” Microscopy Research and Technique, 46:398-417 (1999)).
The micropipettes were backfilled with a H^+ probe backfilling solution of 50 mM KCl and 50 mM HK2PO4.
A rubber groove of 20 cm in length, 5 cm in width, and 1 cm in height was connected to the pot with 1800 ml nutrient solution via a peristaltic pump (Model: 77120-62, 12 VDC 1 AMP, Mfg by Barnant Company) and non-permeable oxygen tubing. One radicle root was appropriately stabilized in the groove with 4 to 5 Minucie stainless-steel needles. Microelectrodes were calibrated before and after each experiment. Calibrations were done in standard pH 6, 7, and 8 solutions (Fisher Scientific) at 25° C. […] Following calibration, the microelectrode was positioned on the targeted radicle root. The scanning started from the root tip and the root was scanned 100 μm by 100 μm near the root tip. Then the scanning intervals were adjusted gradually from 200 μm to 1000 μm or even longer. About 20000 μm along the root was scanned. […]

[10] = cited from earlier work

In the case of `[Ca+2].[O-][O-]` [calcium peroxide], the “oxygen released into water” value ([1]; 500 mg solid composition in 50 ml deionized water, FIG. 9) is reported as “released more oxygen than magnesium peroxide”, the “oxygen level as nutrient strength increases” value [1] is reported as “increases when the nutrient strength increases” and the “increase of oxygen liberated per millimole of EDTA” value [1] is reported as “about 19 micromoles”. The “ADH level compared with control” value (ADH of corn roots; 18 g per pot) was “almost as good as the control”, the “ADH activity in roots as more solid composition was used” value (“ADH activity in roots” for short) (ADH of corn roots) was “the less ADH activity observed in the tested roots” and the death of seedlings (Bald cypress seedlings; 100% flooding) was “No seedlings died”. For the same compound, the growth of seedlings (Bald cypress seedlings; 100% roots submerged for four days, 20 g per pot, FIG. 32) was “could grow”, the “Ksp relative to magnesium peroxide” value [2] was “about 3000 times” and the “effect on ADH of seedlings suffering from flooding” value (ADH of corn seedlings [3]) was “greatly lowered the ADH of the seedlings suffering from flooding”.

For `OO` [hydrogen peroxide], the root lengths (corn seeds [4]; 3/100 H2O2, third day after germination) was 6.8±1.7 mm, the “germination rates among varying concentrations of H2O2” value (corn seeds [4]; 3/2000 H2O2, FIG. 1) was “the best germination rates” and the “germination at 24 hours” value (corn seeds [4]; 3/2000 H2O2, FIG. 3) was “all of the seeds were able to germinate at 24 hours”. The germination rate (corn seeds [4]; 3/2000 H2O2, new seeds) was 95.6%, the germination rate (corn seeds [4]; 3/2000 H2O2, old seeds) was 94.4% and the root lengths (corn seeds [4]; 3/2000 H2O2, third day after germination) was 34.8±1.7 mm. For the same compound, the “germination rates of corn seeds compared with non-hydrogen peroxide exposure” value (corn seeds [4]; H2O2 3/5000 to 3/100, 48 hours after germination, FIG. 1) was “significantly better germination rates than non-hydrogen peroxide exposure”, the “oxygen consumption rate relative to without hydrogen peroxide” value (corn seeds [5]) was “about two” and the “diminished ADH activity” value [6] was “about 40%”. For the same compound, the proton flux direction [7] was “proton efflux occurs heavily”, the “ADH level compared with control” value (ADH of corn seedlings [8]) was “slightly higher that that of the control” and the “ADH level compared with hypoxic seedlings” value (ADH of corn seedlings [8]) was “greatly lower than those of hypoxic seedlings”. The “NR level compared with hypoxic seedlings” value [9] was “greatly lower than those of hypoxic seedlings” and the “protons excreted by roots relative to hypoxia or anoxia” value (corn root) was “seven to ten”.

In the case of `[Mg+2].[O-][O-]` [magnesium peroxide], the “oxygen level as nutrient strength increases” value [1] is reported as “very smooth when the nutrient strength increases”, the “increase of oxygen liberated per millimole of EDTA” value [1] is reported as “about 14 micromoles” and the “ADH activity in roots” value (ADH of corn roots) is reported as “the less ADH activity observed in the tested roots”. The “effect on ADH of seedlings suffering from flooding” value (ADH of corn seedlings [3]) was “greatly lowered the ADH of the seedlings suffering from flooding”, the “oxygen released by zero order constant release” value ([10]; after the first six days) was 90% and the “oxygen released by first order release” value ([10]; first six days) was 10%.

For `O=C([O-])[O-].O=C([O-])[O-].OO.OO.OO.[Na+].[Na+].[Na+].[Na+]` [sodium percarbonate], the “ADH level compared with flooded treatment” value (ADH of corn roots; 5 g) was “almost as bad as the flooded treatment without the supply of solid compositions” and the “ADH activity in roots” value (ADH of corn roots) was “the less ADH activity observed in the tested roots”.
